Assay results taken from patent US11040028B2, “Penicinotam derivative, preparation method and use thereof” (OCEAN UNIVERSITY OF CHINA, priority 2017, dated 2021).

What was measured:
Format in all cases: cell-based
BHK-21 cells = assay: Anti-fibrosis activity test: inhibition of BHK-21 cell proliferation (CCK-8); conditions: Mesocricetus auratus, BHK-21, 48 h, CCK-8, 48 hours after administration
How it was run: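 Proliferation inhibition was read as CCK-8 absorbance at 450 nm (2-hour development) relative to untreated blank, with IC50 fitted from the curve. Before that, adhered cells (2×10^4 cells/mL, 24 hours) had 48 hours' treatment at several concentrations, in triplicate, at 37° C/5% CO2; pirfenidone was the reference.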

[1] = tested on: human embryonic lung fibroblast IMR-90; assay: Anti-fibrosis activity test: inhibition of proliferation of human embryonic lung fibroblast IMR-90 (CCK-8); conditions: human embryonic lung fibroblast IMR-90, CCK-8, 48 hours
How it was run: (§1)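 Proliferation read by CCK-8 (2 h, A450) after 48 h compound treatment of cells plated at 2×10^4 cells/mL and allowed 24 h attachment, triplicate per concentration. Inhibition rate derived from absorbance relative to untreated blank, with IC50 fitted; pirfenidone as positive control.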

[2] = tested on: mouse macrophages (RAW264.7); assay: Lipopolysaccharide-induced NO secretion in macrophages (Griess); conditions: Mus musculus, RAW264.7, 24 h, RAW264.7, LPS 1 μg/ml, a/b isomers given as first/second symbol, read-out: IC50 (μM), inhibition of lipopolysaccharide-induced NO secretion in macrophages
How it was run: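 Percent inhibition of NO release was measured by Griess absorbance at 548 nm in supernatants. Cells were mouse RAW264.7 macrophages in 10% FBS DMEM, treated with graded compound concentrations and activated by LPS (1 μg/ml) for 24 h.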

[3] = tested on: cardiac fibroblast RAT-iCell-C002; assay: Anti-fibrosis activity test: inhibition of proliferation of cardiac fibroblast RAT-iCell-C002 (CCK-8); conditions: Cardiac fibroblast, 48 h, cardiac fibroblast RAT-iCell-C002, CCK-8, 48 hours
How it was run: as §1

[4] = tested on: human fibrosarcoma cells HT-1080; assay: Anti-fibrosis activity test: inhibition of proliferation of human fibrosarcoma cells HT-1080 (CCK-8); conditions: Homo sapiens, HT-1080, 48 h, human fibrosarcoma cells HT-1080, CCK-8, 48 hours
How it was run: as §1

[5] = tested on: human dermal fibroblasts CCC-ESF-1; assay: Anti-fibrosis activity test: inhibition of proliferation of human dermal fibroblasts CCC-ESF-1 (CCK-8); conditions: Fibroblast; human dermal fibroblasts CCC-ESF-1, CCK-8, 48 hours
How it was run: as §1

[6] = tested on: human lung fibroblasts HFL1; assay: Anti-fibrosis activity test: inhibition of proliferation of human lung fibroblasts HFL1 (CCK-8); conditions: Homo sapiens, HFL1, 48 h, human lung fibroblasts HFL1, CCK-8, 48 hours
How it was run: as §1

NF-κB = assay: Immunological activity test: inhibition of NF-κB activity; conditions: initial concentration of 30 μM; a/b isomers given as first/second symbol; read-out: IC50 (μM), inhibitory activity against NF-κB
How it was run: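 IC50 values were derived after initial screening of compounds at 30 μM for NF-κB inhibitory activity, with parthenolide serving as the positive control.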

[7] = tested on: human hepatic stellate cells LX-2; assay: Anti-fibrosis activity test: inhibition of proliferation of human hepatic stellate cells LX-2 (CCK-8); conditions: Homo sapiens, 48 h, human hepatic stellate cells LX-2, CCK-8, 48 hours
How it was run: as §1

IC50 [2] [µM] | IC50 [4] [mM] | IC50 (NF-κB) [µM] | Compound | IC50 (BHK-21 cells) [mM] | IC50 [1] [mM] | IC50 [3] [mM] | IC50 [5] [mM] | IC50 [6] [mM] | IC50 [7] [mM]
1 to 10 | 0.05 to 5 | 1 to 10 | COCCOc1c2c(nc3ccccc13)-c1cccn1C2=O [Compound 652b, 9-(2-methoxyethoxy)-10H-pyrrolizino[1,2-b]quinolin-10-one] | 0.05 to 5 | 0.05 to 5 | 0.05 to 5 | 0.05 to 5 | 0.05 to 5 | 0.05 to 5
0.1 to 1 | 0.05 to 5 | 1 to 10 | O=C1c2c(n(Cc3cccc(F)c3)c3ccccc3c2=O)-c2cccn21 [Compound 595a, 4-(3-Fluorobenzyl)-9H-pyrrolizino[1,2-b]quinoline-9,10(4H)-dione] | 0.05 to 5 | 0.05 to 5 | 0.05 to 5 | < 0.05 | 0.05 to 5 | 0.05 to 5
10 to 50 | 0.05 to 5 | 0.1 to 1 | O=C1c2c(n(Cc3cc(C(F)(F)F)ccc3Cl)c3ccccc3c2=O)-c2cccn21 [Compound 611a, 4-(2-Chloro-5-(trifluoromethyl)benzyl)-9H-pyrrolizino[1,2-b]quinoline-9,10(4H)-dione] | 0.05 to 5 | 0.05 to 5 | 0.05 to 5 | 0.05 to 5 | 0.05 to 5 | 0.05 to 5
1 to 10 | < 0.05 | 1 to 10 | O=C1c2c(n(Cc3ccc(F)cc3F)c3ccccc3c2=O)-c2cccn21 [Compound 578a, 4-(2,4-Difluorobenzyl)-9H-pyrrolizino[1,2-b]quinoline-9,10(4H)-dione] | 0.05 to 5 | 0.05 to 5 | 0.05 to 5 | 0.05 to 5 | 0.05 to 5 | 0.05 to 5

Further lines, the compound ahead of its results:

Compound | IC50 [2] [µM] | IC50 [4] [mM] | IC50 (NF-κB) [µM] | IC50 (BHK-21 cells) [mM] | IC50 [1] [mM] | IC50 [3] [mM] | IC50 [5] [mM] | IC50 [6] [mM] | IC50 [7] [mM]
O=C1c2c(nc3c(F)cccc3c2O)-c2cccn21 [Compound 444b, 5-fluoro-9-hydroxy-10H-pyrrolizino[1,2-b]quinolin-10-one] | 1 to 10 | 0.05 to 5 | 1 to 10 | 0.05 to 5 | 0.05 to 5 | 0.05 to 5 | 0.05 to 5 | 0.05 to 5 | 0.05 to 5
N#Cc1ccc(F)cc1COc1c2c(nc3ccccc13)-c1cccn1C2=O [Compound 616b, 4-fluoro-2-(((10-oxo-10H-pyrrolizino[1,2-b]quinolin-9-yl)oxy)methyl)benzonitrile] | 1 to 10 | 0.05 to 5 | 10 to 50 | 0.05 to 5 | 0.05 to 5 | 0.05 to 5 | 0.05 to 5 | 0.05 to 5 | 0.05 to 5
O=C1c2c(n(CCF)c3ccccc3c2=O)-c2cccn21 [Compound 653a, 4-(2-Fluoroethyl)-9H-pyrrolizino[1,2-b]quinoline-9,10(4H)-dione] | 1 to 10 | 0.05 to 5 | 1 to 10 | 0.05 to 5 | 0.05 to 5 | 0.05 to 5 | 0.05 to 5 | 0.05 to 5 | 0.05 to 5
O=C1c2c(n(Cc3cccc(I)c3)c3ccccc3c2=O)-c2cccn21 [Compound 608a, 4-(3-Iodobenzyl)-9H-pyrrolizino[1,2-b]quinoline-9,10(4H)-dione] | 1 to 10 | 0.05 to 5 | 1 to 10 | < 0.05 | < 0.05 | 0.05 to 5 | 0.05 to 5 | 0.05 to 5 | 0.05 to 5
CC(C)(C)c1ccc(Cn2c3c(c(=O)c4ccccc42)C(=O)n2cccc2-3)cc1 [Compound 605a, 4-(4-(Tert-butyl)benzyl)-9H-pyrrolizino[1,2-b]quinoline-9,10(4H)-dione] | 1 to 10 | 0.05 to 5 | 1 to 10 | 0.05 to 5 | 0.05 to 5 | 0.05 to 5 | 0.05 to 5 | 0.05 to 5 | 0.05 to 5
N#Cc1cccc2nc3c(c(OCc4ccc(F)cc4)c12)C(=O)n1cccc1-3 [Compound 462b, 9-((4-fluorobenzyl)oxy)-10-oxo-10H-pyrrolizino[1,2-b]quinoline-8-carbonitrile] | 1 to 10 | 0.05 to 5 | 0.1 to 1 | 0.05 to 5 | 0.05 to 5 | 0.05 to 5 | 0.05 to 5 | 0.05 to 5 | 0.05 to 5
